Data reported in patent US20100145901A1, “MATRIX MARKER MODEL AND METHODS FOR ASSESSING AND TREATING ARTHRITIS AND RELATED DISORDERS” (priority 2007, published 2010).

Legend:
[1] = test system: patients with active RA; assay: ASPIRE trial: joint damage progression (modified Sharp/van der Heijde score) baseline to week 54; type: in vivo, human
Description: Details on the patient population and study protocol on which we have tested our model have been presented previously (StClair et al. Arthritis Rheum 2004; 50:3432-3443). […] In addition, patients had >=10 swollen joints (66 joint count), >=12 tender joints (68 joint count), and >=1 of the following: rheumatoid factor (RF) positivity, radiographic erosions of the hands or feet, or serum C-reactive protein (CRP) level >=2.0 mg/dl.
The institutional review boards at participating sites approved the study protocol. All patients provided written informed consent. Patients were randomized in a 4:5:5 ratio to receive placebo, infliximab 3 mg/kg, or infliximab 6 mg/kg at weeks 0, 2, and 6, and then every 8 weeks through week 46. All patients were treated with oral MTX starting at 7.5 mg/week at week 0; MTX doses were increased by 2.5 mg every 1-2 weeks to reach 15 mg/week by week 4 and 20 mg/week by week 8. MTX was administered to all patients through week 54. Patients also received folic acid >=5 mg/week.
The American College of Rheumatology core set variables (Felson A&R 1993), including numbers of tender and swollen joints, were documented at each visit. The 28 joint count (Prevoo A&R 1995) was used in the creation of our model as it is more appropriate and more frequently used in daily clinical practice as compared to the 66/68 count. The Westergren method (Koepke 1988) was used to determine erythrocyte sedimentation rate (ESR) at weeks 0, 6, 30, and 54; normal ESR levels were <=20 mm/hour for women and <=15 mm/hour for men. CRP levels (normal <0.8 mg/dl) were measured by nephelometry (Stites 1997) at screening and each visit thereafter. (If possible RF testing should be specified as different IG's tested for have different correlation with radiological progression. Radiographs of the hands and feet were obtained within 4 weeks of receiving the first dose of the study drug, at weeks 30 and 54, and upon use of a protocol-prohibited medication or study termination, as applicable. Joint damage was assessed by change in the modified Sharp/van der Heijde score (SHS) (vander Heijde Lancet 1989) from baseline to week 54.
Of the 1,049 patients enrolled in the ASPIRE trial, 1,004 were prospectively identified as eligible for inclusion in the efficacy analyses prior to unblinding (StClair A&R 2004). […] Summary statistics of median, mean, and interquartile ranges are presented for continuous variables. Spearman correlation analyses were performed to evaluate the association between baseline covariates and changes in radiographic scores. Tests for statistical significance were performed using analysis of variance on van der Waerden normal scores. For categorical response parameters, treatment group comparisons were made using the chi-square test. […]

[2] = test system: RA patients; conditions: 25 studies, 3907 RA patients; cited from earlier work

## CN(Cc1cnc2nc(N)nc(N)c2n1)c1ccc(C(=O)N[C@@H](CCC(=O)O)C(=O)O)cc1 [MTX, methotrexate]
[1]; MTX alone
  change in the SHS from baseline to week 54 (mean+/−SD): 3.7+/−9.6
[1]; baseline to week 54
  patients showing an increase in radiographic score: 61%
  patients showing an increase of radiographic score of at least 5 SHS units: 23%
  patients with SHS of 0 at baseline who did not progress: 63%
[2]
  change in erosion scores versus placebo: statistically better than placebo

## O=C(O)c1cc(/N=N/c2ccc(S(=O)(=O)Nc3ccccn3)cc2)ccc1O [SSZ, sulphasalazine]
[2]
  change in erosion scores versus placebo: statistically better than placebo

## CC(=O)OC[C@H]1O[C@@H]([S-])[C@H](OC(C)=O)[C@@H](OC(C)=O)[C@@H]1OC(C)=O.CCP(CC)CC.[Au+] [auranofin]
[2]
  change in erosion scores versus placebo: statistically better than placebo

## Cc1oncc1C(=O)Nc1ccc(C(F)(F)F)cc1 [leflunomide]
[2]
  change in erosion scores versus placebo: statistically better than placebo

## infliximab
[2]
  change in erosion scores versus placebo: statistically better than placebo
  rank versus other agents in preventing radiological progression: superior to the last five agents

## interleukin 1 receptor antagonist: interleukin 1 receptor antagonist
[2]
  change in erosion scores versus placebo: statistically better than placebo
